Laboratory results: article PMC13013135, “[^99mTc]Tc-PSMA-HSG for PSMA-targeted Hybrid Surgical Guidance: a new addition to the PSMA-I&S/I&T family” (European Journal of Nuclear Medicine and Molecular Imaging, 2025)
Read-outs that look alike come from different tables or passages of the source. Square brackets hold non-standard residues; d marks the D form. Peptide text beside a SMILES is read from it. * marks the point of attachment. X1 = O=C(O)CC[C@H](NC(=O)N[C@@H](CCCCNC(=O)CCCCCCC(=O)*)C(=O)O)C(=O)O; d2Nal = N[C@H](Cc1ccc2ccccc2c1)C(=O)O; Mercaptoacetyl = O=C(CS)*

Tests used:
[1] = cited from earlier work
PSMA = PSMA (Homo sapiens, UniProt Q04609); assay: Competitive binding (IC50) on LNCaP cells with ([^125I]I-BA)KuE as radioligand; conditions: for IC50: LNCaP cells, ([^125I]I-BA)KuE radioligand, free mas3-chelator
Procedure: Competitive binding experiments (IC50) were carried out in accordance with an established protocol using PSMA-expressing LNCaP cells and ([^125I]I-BA)KuE as standard radioligand. […] Please see the Supplementary Material for experimental details. For IC50 determination, approximately 150.000 cells/well were seeded on 24-well plates one day prior to the experiment. For internalization studies, 125.000 cells/well in PDL-coated 24-well plates were used. Cell counting was carried out using a Corning cell counter (Cytosmart, Eindhoven, The Netherlands).

[2] = tested on: PSMA expressing LNCaP cells; assay: Dual tracer internalization assay; type: cell-based, human; conditions: 60 min, 37 °C, 0.5 nM tracer, normalized to ([^125I]IBA)KuE
Procedure: Competitive binding experiments (IC50) were carried out in accordance with an established protocol using PSMA-expressing LNCaP cells and ([^125I]I-BA)KuE as standard radioligand. […] Please see the Supplementary Material for experimental details. […] The supernatant was removed, cells were washed with assay medium, and an acid wash (50 mM NaOAc in saline, pH 4.5) was performed to remove membrane-associated activity. Cells were then lysed using 1N NaOH, and internalized activity was quantified using a γ-counter. […] Tocris Bioscience, Bristol, UK) and normalized to the specific internalization observed for the radioiodinated reference compound in the same experiment. Data represent means ± SD (n=3) from three separate determinations.

[3] = Lipophilicity, modified shake-flask method; type: physicochemical
Procedure: The lipophilicity of [^99mTc]Tc-PSMA-HSG was determined via a modified shake-flask method as described.

human serum = assay: Plasma protein binding (B50), ultrafiltration, human serum; type: in vitro ADME
Procedure: (§1) A detailed experimental procedure is provided in the Supplementary Material. […] Briefly, protein solutions (maximum concentration: […] Samples were briefly vortexed and incubated for 30 min at 37 °C. […] The filter units were then removed from the centrifugal tubes and washed twice with 300 µL PBS to recover the protein fraction. The activity in the filtrate, filter and protein fraction were then quantified using a γ-counter. […] The percentages of radioligand bound to the respective proteins are represented as means ± standard deviation (SD) of three independent experiments.

[4] = target: human serum albumin (HSA) (Homo sapiens, UniProt P02768); assay: Plasma protein binding (B50), ultrafiltration, HSA; type: in vitro ADME
Procedure: as §1

mouse serum = assay: Plasma protein binding (B50), ultrafiltration, mouse serum; type: in vitro ADME
Procedure: as §1

[5] = tested on: LNCaP xenograft bearing NSG mice; assay: Biodistribution in LNCaP xenograft bearing NSG mice; conditions: 6 h p.i., 0.1 nmol
Procedure: The biodistribution of [^99mTc]Tc-PSMA-HSG and of the reference compound [^99mTc]Tc-PSMA-I&S was investigated in LNCaP xenograft bearing NSG mice (see supplemental information).
Mice were injected intravenously with the respective ^99mTc-labeled tracer (24–34 MBq (fixed peptide dose of 1 nmol/mouse) or 3.7–7.6 MBq (fixed peptide doses of 0.1 nmol/mouse), respectively) and were sacrificed at 2 h (1 nmol-cohort) or 6 h p.i. (0.1 nmol-cohort), respectively. The organs of interest were dissected, and the activity concentration in weighed tissue samples was quantified using an AMG Automatic Gamma Counter (Hidex, Turku, Finland). Biodistribution data are given in %iD/g and represent means ± SD (groups of n = 5 animals). Statistical analysis (Multiple unpaired t-test) of biodistribution data and tumor/organ ratios was performed using GraphPad Prism (Boston, USA).
To induce LNCaP tumor growth, a suspension of LNCaP cells (approx. 5 x 10^6 cells/mouse) in 200 μl of a 1:1 mixture of serum-free DMEM and Matrigel (BD Biosciences) was injected subcutaneously into the right shoulder of male NOD scid gamma (NSG) mice (6-8 weeks, in-house breeding, Dpt. of Oncology, University of Lausanne). After approximately 9 weeks, tumor size reached 4-8 mm in diameter and the mice were used for the in vivo studies.

Chain of human serum albumin (HSA) (P02768 25-609): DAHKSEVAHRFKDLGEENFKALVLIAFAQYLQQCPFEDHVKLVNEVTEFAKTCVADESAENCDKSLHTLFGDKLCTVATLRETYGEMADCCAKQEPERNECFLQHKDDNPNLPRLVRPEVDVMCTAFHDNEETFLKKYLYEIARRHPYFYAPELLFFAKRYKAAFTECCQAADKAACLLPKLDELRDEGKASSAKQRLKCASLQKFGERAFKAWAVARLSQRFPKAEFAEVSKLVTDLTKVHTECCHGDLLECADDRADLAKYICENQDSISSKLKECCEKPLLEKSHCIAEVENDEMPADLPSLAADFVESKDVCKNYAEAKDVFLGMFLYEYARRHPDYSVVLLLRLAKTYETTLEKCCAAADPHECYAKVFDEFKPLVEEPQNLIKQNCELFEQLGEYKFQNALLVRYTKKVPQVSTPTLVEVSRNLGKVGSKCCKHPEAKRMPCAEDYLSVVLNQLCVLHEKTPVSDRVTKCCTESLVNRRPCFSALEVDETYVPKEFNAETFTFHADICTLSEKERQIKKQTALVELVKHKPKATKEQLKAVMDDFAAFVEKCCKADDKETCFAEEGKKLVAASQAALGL
Chain of PSMA (Q04609 whole entry): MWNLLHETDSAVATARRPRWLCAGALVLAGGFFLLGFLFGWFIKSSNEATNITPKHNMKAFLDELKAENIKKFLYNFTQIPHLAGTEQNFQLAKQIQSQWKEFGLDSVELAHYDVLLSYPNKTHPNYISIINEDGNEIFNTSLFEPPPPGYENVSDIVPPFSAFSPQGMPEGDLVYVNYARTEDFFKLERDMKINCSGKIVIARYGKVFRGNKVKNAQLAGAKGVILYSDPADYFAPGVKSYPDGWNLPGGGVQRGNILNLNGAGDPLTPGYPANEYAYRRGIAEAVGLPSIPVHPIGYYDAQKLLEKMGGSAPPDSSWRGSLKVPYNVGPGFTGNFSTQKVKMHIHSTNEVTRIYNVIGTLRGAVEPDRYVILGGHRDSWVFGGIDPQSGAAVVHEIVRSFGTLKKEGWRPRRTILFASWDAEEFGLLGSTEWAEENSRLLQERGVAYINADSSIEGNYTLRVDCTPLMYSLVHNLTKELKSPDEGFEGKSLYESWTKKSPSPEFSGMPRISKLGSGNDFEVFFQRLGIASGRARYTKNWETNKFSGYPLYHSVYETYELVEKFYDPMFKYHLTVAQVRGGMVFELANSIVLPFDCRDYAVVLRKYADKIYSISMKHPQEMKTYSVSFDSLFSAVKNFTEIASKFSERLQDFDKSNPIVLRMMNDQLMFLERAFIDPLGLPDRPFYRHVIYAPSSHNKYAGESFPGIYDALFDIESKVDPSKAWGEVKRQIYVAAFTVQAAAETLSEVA

O=C([O-])CN(CCN(CC(=O)[O-])Cc1cc(CCC(=O)NCCCCCC(=O)NCCCC[C@H](NC(=O)N[C@@H](CCC(=O)O)C(=O)O)C(=O)O)ccc1[O-])Cc1cc(CCC(=O)O)ccc1[O-].[68Ga+3].[OH3+] [[^68Ga]Ga-PSMA-11]
effective dose ([1]; human, in vivo): 0.023 ± 0.004 mSv/MBq

CCN1/C(=C/C=C/C=C/C=C/C2=[N+](CCCCCC(=O)NCCCC[C@@H](NC(=O)[C@@H](CO)NC(=O)[C@@H](CO)NC(=O)[C@@H](CO)NC(=O)CSC(C)=O)C(=O)N[C@H](Cc3ccc(O)cc3)C(=O)N[C@H](Cc3ccc4ccccc4c3)C(=O)N[C@H](CCCCNC(=O)CCCCCCC(=O)NCCCC[C@H](NC(=O)N[C@@H](CCC(=O)O)C(=O)O)C(=O)O)C(=O)O)c3ccc(S(=O)(=O)[O-])cc3C2(C)C)C(C)(C)c2cc(S(=O)(=O)O)ccc21 [PSMA-HSG-Cy7-II]
decrease in PSMA affinity compared to PSMA-HSG (PSMA): twofold decreased
IC50 (PSMA): 0.0731 ± 0.0111 µM

CC(=O)SCC(=O)N[C@H](CO)C(=O)N[C@H](CO)C(=O)N[C@H](CO)C(=O)N[C@H](CCCCNC(=O)CCCCC[N+]1=C(/C=C/C2=CC(=C/C=C3/N(C)c4ccc(S(=O)(=O)O)cc4C3(C)C)/CCC2)C(C)(C)c2cc(S(=O)(=O)[O-])ccc21)C(=O)N[C@H](Cc1ccc(O)cc1)C(=O)N[C@H](Cc1ccc2ccccc2c1)C(=O)N[C@H](CCCCNC(=O)CCCCCCC(=O)NCCCC[C@H](NC(=O)N[C@@H](CCC(=O)O)C(=O)O)C(=O)O)C(=O)O [PSMA-HSG-Cy7-I]
decrease in PSMA affinity compared to PSMA-HSG (PSMA): twofold decreased
IC50 (PSMA): 0.0707 ± 0.0108 µM

CC(=O)SCC(=O)N[C@H](CO)C(=O)N[C@H](CO)C(=O)N[C@H](CO)C(=O)N[C@H](CCCCNC(=O)CCCCCN1/C(=C/C=C/C=C/C2=[N+](C)c3ccc(S(=O)(=O)[O-])cc3C2(C)C)C(C)(C)c2cc(S(=O)(=O)O)ccc21)C(=O)N[C@H](Cc1ccc(O)cc1)C(=O)N[C@H](Cc1ccc2ccccc2c1)C(=O)N[C@H](CCCCNC(=O)CCCCCCC(=O)NCCCC[C@H](NC(=O)N[C@@H](CCCC(=O)O)C(=O)O)C(=O)O)C(=O)O [Aad-PSMA-HSG]
decrease in PSMA affinity compared to PSMA-HSG (PSMA): fifteen-fold reduction

CC[N+]1=C(/C=C/C=C/C=C/C=C2/N(CCCCCC(=O)NCCCC[C@@H](NC(=O)[C@@H](CO)NC(=O)[C@@H](CO)NC(=O)[C@@H](CO)NC(=O)CS)C(=O)N[C@H](Cc3ccc(O)cc3)C(=O)N[C@H](Cc3ccc4ccccc4c3)C(=O)N[C@H](CCCCNC(=O)CCCCCCC(=O)NCCCC[C@H](NC(=O)N[C@@H](CCC(=O)O)C(=O)O)C(=O)O)C(=O)O)c3ccc(S(=O)(=O)[O-])cc3C2(C)C)C(C)(C)c2cc(S(=O)(=O)O)ccc21 [[^99mTc]Tc-PSMA-HSG-Cy7-II, metal not drawn]
internalization [% of reference] [2]: 28 ± 7 % of reference
logD [3]: -2.71
B50 HS (human serum): 121 ± 16
B50 HSA [4]: 149 ± 14
B50 MS (mouse serum): 53 ± 7

O=C(O)CC[C@H](NC(=O)N[C@@H](CCCCNC(=O)c1ccc([18F])nc1)C(=O)O)C(=O)O [[^18F]DCFPyL]
effective dose ([1]; patients): 0.0165 mSv/MBq

O=C(O)CC[C@H](NC(=O)N[C@@H](CCCCNC(=O)CCCCCCC(=O)NCCCC[C@@H](NC(=O)[C@@H](Cc1ccc2ccccc2c1)NC(=O)[C@@H](Cc1ccc(O)cc1)NC(=O)[C@@H](CO)NC(=O)[C@@H](CO)NC(=O)[C@@H](CO)NC(=O)CS)C(=O)O)C(=O)O)C(=O)O [[^99mTc]Tc-PSMA-I&S, [^99mTc]Tc-mas3-y-nal-k-Sub-KuE, metal not drawn, reference compound] (Mercaptoacetyl-[dS][dS][dS][dY][d2Nal][dK](X1)-OH)
lipophilicity [logD] [3]: −3.01
B50 HS (human serum; human serum, molar excess of protein over radioligand for half-maximal binding, n = 3): 321 ± 18
B50 HSA ([4]; HSA in PBS, molar excess of protein over radioligand for half-maximal binding, n = 3): 324 ± 6
B50 MS (mouse serum; mouse serum, molar excess of protein over radioligand for half-maximal binding, n = 3): 652 ± 77
biodistribution, LNCaP tumor [5]: 12.9 ± 1.4 %iD/g
biodistribution, blood [5]: 0.15 ± 0.03 %iD/g
biodistribution, heart [5]: 0.24 ± 0.05 %iD/g
biodistribution, intestines [5]: 1.8 ± 0.8 %iD/g
biodistribution, kidneys [5]: 147.0 ± 10 %iD/g
biodistribution, liver [5]: 0.8 ± 0.4 %iD/g
biodistribution, lung [5]: 2.2 ± 0.2 %iD/g
biodistribution, muscle [5]: 0.2 ± 0.04 %iD/g
biodistribution, pancreas [5]: 0.7 ± 0.1 %iD/g
biodistribution, salivary glands [5]: 3.2 ± 0.8 %iD/g
biodistribution, spleen [5]: 14.2 ± 2.0 %iD/g
biodistribution, stomach [5]: 0.3 ± 0.1 %iD/g
absorbed dose coefficient of the urinary bladder wall ([1]; patients): 0.000355 mGy/MBq
effective dose ([1]; patients): 0.0052 mSv/MBq
kidney absorbed dose coefficient ([1]; patients): 0.0733 mGy/MBq
salivary gland absorbed dose coefficient ([1]; patients): 0.0221 mGy/MBq

C[N+]1=C(/C=C/C2=CC(=C/C=C3/N(CCCCCC(=O)NCCCC[C@@H](NC(=O)[C@@H](CO)NC(=O)[C@@H](CO)NC(=O)[C@@H](CO)NC(=O)CS)C(=O)N[C@H](Cc4ccc(O)cc4)C(=O)N[C@H](Cc4ccc5ccccc5c4)C(=O)N[C@H](CCCCNC(=O)CCCCCCC(=O)NCCCC[C@H](NC(=O)N[C@@H](CCC(=O)O)C(=O)O)C(=O)O)C(=O)O)c4ccc(S(=O)(=O)[O-])cc4C3(C)C)/CCC2)C(C)(C)c2cc(S(=O)(=O)O)ccc21 [[^99mTc]Tc-PSMA-HSG-Cy7-I, metal not drawn]
internalization [% of reference] [2]: 17 ± 2 % of reference
logD [3]: -2.63
B50 HS (human serum): 246 ± 27
B50 HSA [4]: 165 ± 21
B50 MS (mouse serum): 93 ± 16
